From patent US20100168218A1 (priority 2005, published 2010)
Like-named read-outs stand apart in the source and are kept apart here.

Tests used:
[1] = C75 administration, separate studies; cited from earlier work
[2] = system: carnitine palmitoyltransferase-1 (CPT-1); conditions: Thupari et al.; cited from earlier work
[3] = system: FAO in the ventrolateral hypothalamus (VLH); conditions: cited from earlier work
[4] = molecular target: human FAS (Homo sapiens, UniProt P49327); assay: FAS inhibition assay (standard and slow-binding); type: biochemical
Chain of human FAS (P49327 whole entry): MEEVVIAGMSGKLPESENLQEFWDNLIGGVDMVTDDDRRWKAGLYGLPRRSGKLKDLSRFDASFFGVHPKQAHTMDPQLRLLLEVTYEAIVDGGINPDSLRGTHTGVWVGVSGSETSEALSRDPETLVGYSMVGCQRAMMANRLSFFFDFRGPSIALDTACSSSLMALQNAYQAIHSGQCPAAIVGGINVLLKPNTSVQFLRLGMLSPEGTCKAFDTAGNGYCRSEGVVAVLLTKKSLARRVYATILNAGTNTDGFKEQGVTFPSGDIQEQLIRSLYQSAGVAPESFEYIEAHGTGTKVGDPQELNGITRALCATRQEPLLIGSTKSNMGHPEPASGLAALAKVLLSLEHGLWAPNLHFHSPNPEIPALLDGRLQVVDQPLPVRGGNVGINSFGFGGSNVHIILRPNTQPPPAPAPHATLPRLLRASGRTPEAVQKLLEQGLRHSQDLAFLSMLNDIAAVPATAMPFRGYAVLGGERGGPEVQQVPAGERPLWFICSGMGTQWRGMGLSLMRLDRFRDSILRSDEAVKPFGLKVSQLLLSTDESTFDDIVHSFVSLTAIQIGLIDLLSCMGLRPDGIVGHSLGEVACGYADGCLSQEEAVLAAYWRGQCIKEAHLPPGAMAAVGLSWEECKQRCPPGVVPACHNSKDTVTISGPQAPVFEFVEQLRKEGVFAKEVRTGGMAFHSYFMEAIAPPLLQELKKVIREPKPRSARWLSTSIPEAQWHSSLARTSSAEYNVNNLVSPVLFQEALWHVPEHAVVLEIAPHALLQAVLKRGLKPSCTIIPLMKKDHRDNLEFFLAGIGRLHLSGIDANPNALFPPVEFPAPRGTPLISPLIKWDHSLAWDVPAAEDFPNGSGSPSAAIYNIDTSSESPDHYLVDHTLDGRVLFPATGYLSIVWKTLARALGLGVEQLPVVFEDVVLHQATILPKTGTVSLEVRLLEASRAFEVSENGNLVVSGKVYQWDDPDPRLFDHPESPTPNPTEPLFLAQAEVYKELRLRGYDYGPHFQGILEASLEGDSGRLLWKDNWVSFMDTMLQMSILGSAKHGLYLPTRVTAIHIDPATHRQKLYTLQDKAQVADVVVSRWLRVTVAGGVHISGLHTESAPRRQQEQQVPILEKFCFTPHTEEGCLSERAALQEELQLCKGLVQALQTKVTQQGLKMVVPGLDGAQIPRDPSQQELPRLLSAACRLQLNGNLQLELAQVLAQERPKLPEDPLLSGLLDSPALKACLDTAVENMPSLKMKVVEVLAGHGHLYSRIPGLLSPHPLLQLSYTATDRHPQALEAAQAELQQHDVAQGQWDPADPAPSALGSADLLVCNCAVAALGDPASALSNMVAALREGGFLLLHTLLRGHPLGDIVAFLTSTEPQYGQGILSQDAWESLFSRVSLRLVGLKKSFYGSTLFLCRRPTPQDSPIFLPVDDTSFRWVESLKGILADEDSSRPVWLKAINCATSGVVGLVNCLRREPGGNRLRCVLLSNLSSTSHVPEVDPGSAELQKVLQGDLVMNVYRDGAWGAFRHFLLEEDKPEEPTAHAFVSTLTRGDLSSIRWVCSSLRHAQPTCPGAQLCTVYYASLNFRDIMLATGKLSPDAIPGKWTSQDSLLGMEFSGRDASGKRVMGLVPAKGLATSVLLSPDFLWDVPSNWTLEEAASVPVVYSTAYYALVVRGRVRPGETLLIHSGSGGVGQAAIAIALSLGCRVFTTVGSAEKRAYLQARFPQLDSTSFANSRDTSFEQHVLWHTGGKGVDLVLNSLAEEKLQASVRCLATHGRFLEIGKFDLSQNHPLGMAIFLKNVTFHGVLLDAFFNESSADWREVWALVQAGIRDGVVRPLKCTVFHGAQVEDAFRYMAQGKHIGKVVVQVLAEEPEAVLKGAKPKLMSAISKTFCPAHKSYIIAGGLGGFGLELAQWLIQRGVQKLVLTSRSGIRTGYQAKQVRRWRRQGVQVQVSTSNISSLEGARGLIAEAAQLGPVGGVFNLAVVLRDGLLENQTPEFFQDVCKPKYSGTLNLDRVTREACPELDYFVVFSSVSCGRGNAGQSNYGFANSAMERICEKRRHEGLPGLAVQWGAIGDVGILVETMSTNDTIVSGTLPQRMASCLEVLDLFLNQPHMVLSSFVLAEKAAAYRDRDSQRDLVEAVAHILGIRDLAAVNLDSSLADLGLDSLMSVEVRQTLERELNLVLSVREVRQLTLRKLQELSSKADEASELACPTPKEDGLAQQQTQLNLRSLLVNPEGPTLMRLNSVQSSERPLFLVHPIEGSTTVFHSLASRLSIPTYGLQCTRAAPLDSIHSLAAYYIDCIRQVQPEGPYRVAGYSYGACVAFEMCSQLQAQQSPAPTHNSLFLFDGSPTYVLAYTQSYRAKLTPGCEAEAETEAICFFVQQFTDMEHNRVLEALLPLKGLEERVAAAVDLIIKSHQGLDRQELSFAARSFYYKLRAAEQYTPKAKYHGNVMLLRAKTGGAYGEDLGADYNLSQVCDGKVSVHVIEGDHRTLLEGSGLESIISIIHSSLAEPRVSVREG
Method: (§1) In contrast, it stimulated FAO by 150% of control at 8.4 μg/ml (28 μM) and CPT-1 activity by 150% of control at 20 μg/ml (˜60 μM). In lean female Balb/C mice, a single ip dose of 60 mg/kg caused nearly 8% weight loss within 24 hours along with a 68% reduction in food intake. […] Compound 5, with a different chemical structure, has similar biological characteristics to Compound 4.

[5] = system: CPT-1; assay: CPT-1 activity in digitonin permeabilized cells; type: cell-based
[6] = system: MCF7 human breast cancer cells; assay: Fatty acid oxidation: oxidation of [14C]palmitate to acid soluble products; type: cell-based
Description: By “FAO-stimulator,” we mean a compound which stimulates FAO as measured by oxidation of [^14C]palmitate to acid soluble products in MCF7 human breast cancer cells as described by Watkins, et al., “Peroxisomal fatty acid beta-oxidation in HepG2 cells,” Arch Biochem Biophys, 289: 329-336 (1991). A compound whose Vmax is at least 125% of vehicle control is defined as an FAO stimulator.

[7] = Weight loss, food intake and indirect calorimetry in lean female Balb/C mice, 60 mg/kg; type: in vivo; conditions: for Metabolic Mechanism (indirect calorimetry): RER / Metabolic Mechanism (indirect calorimetry): VO2: compared to pair-fed animals; for % Maximum Reduction in Food Intake: day 1; for % Maximum Reduction in Food Intake / % Max. Wt Loss: 60 mg/kg
Method: Compounds 4 and 5 were administered to pair-fed mice, and various biological properties were tested for. The results are summarized below:
as §1

[8] = Oral 100 mg/kg in diet-induced obese mice vs pair-fed and control animals (FIG. 3); type: in vivo
Method: In this experiment, compound 4 was administered orally at 100 mg/kg, in 35 μl DMSO to diet-induced obese mice, 5 animals per group.

[9] = portal vein infusion, 18 h chow deprived rats; cited from earlier work
[10] = systemic FAO inhibition, rodents; cited from earlier work
[11] = slow binder requires preincubation at 37° C. prior to FAS assay, read-out: FAS Inhibition IC50
[12] = concentration that yields a 50% increase in fatty acid oxidation over controls, linear regression analysis, read-out: FAO SC150
[13] = single ip dose of 60 mg/kg, within 24 hours, lean female Balb/C mice

For `C=C1C(=O)O[C@@H](CCCCCCCC)[C@@H]1C(=O)O` (relative stereo) [Compound C75, trans-tetrahydro-3-methylene-2-oxo-5-n-octyl-4-furancarboxylic], the energy expenditure [1] is listed as “increases energy expenditure”, the food intake [1] is listed as “reducing food intake” and the CPT-1 activity [2] is listed as “stimulates carnitine palmitoyltransferase-1 (CPT-1) activity”.
In the case of `C=CCCC(=O)O` [Compound 4-PA, 4-pentanoic acid], the “weight or carcass composition” value ([3]; after 2 weeks of central FAO inhibition, rats) is listed as “no significant changes in weight or carcass composition” and the “reduction of FAO in the VLH” value ([3]; infusion for 14 days into the VLH of rats) is listed as 37%.
In the case of `C=CCC1(CC=C)C(=O)S[C@](C)(CCCCCCCC)C1=O` [Compound 4], the IC50 [4, 11] is reported as > 77.5 µM, the IC50 ([4]; standard and slow-binding assays, read-out: human FAS inhibition: no inhibition at concentrations up to) is reported as > 310 µM and the “CPT-1 Activity %” value ([5]; % of control at concentration for maximal CPT-1 activity, digitonin permeabilized cells) is reported as 150%. The “concentration giving CPT-1 activity 150% of control” value ([5]; molar equivalent of 20 μg/ml) was ~60 µM, the “concentration for maximal CPT-1 activity” value ([5]; number in parenthesis, digitonin permeabilized cells) was 20 µg/mL and the EC50 [6, 12] was 8.4 µg/mL. The EC50 ([6]; molar equivalent of 8.4 μg/ml, read-out: concentration stimulating FAO by 150% of control) was 28 µM, the “Metabolic Mechanism (indirect calorimetry): RER” value (shortened to “Metabolic Mechanism … RER”) [7] was “↓RER p = 0.0057” and the “Metabolic Mechanism (indirect calorimetry): VO2” value (shortened to “Metabolic Mechanism … VO2”) [7] was “↑VO2”. For the same compound, the “Metabolic Mechanism … RER” value ([7]; listed as compound 4) was “reducing RER”, the “Metabolic Mechanism … VO2” value ([7]; listed as compound 4) was “increased VO2 compared to pair-fed animals” and the “% Maximum Reduction in Food Intake” value ([7]; lean female Balb/C mice) was 68% (day 1). The “% Max. Wt Loss” value ([7]; lean female Balb/C mice) was 7.9%, the “reduction in food intake” value [7, 13] was 68% and the weight loss [7, 13] was ~8%. For the same compound, the “RER vs pair-fed group (FIG. 3D)” value ([8]; oral 100 mg/kg) was “significantly reduced compared to the pair-fed group on days 1, 3, and 4”, the “VO2 by indirect calorimetry vs pair-fed animals (FIG. 3C)” value ([8]; oral 100 mg/kg) was “maintained their VO2 compared to pair-fed animals on the first two days following treatment with a significant increase by day 3” and the “food intake vs control animals (FIG. 3B)” value ([8]; oral 100 mg/kg) was “ate significantly less food than control animals on the two days following treatment”. For the same compound, the “weight loss vs pair-fed animals (FIG. 3A)” value ([8]; oral 100 mg/kg in DMSO) was “lost more weight and maintained the weight loss longer than the pair-fed animals”.
With `CCCCC1OC(=O)C(=O)C1C(=O)OCC` (stereo not drawn) [Compound 5] the IC50 [4, 11] was > 110 µM, the EC50 [6, 12] was 9 µg/mL and the “Metabolic Mechanism … RER” value [7] was “↓RER p = 0.01”. For the same compound, the “Metabolic Mechanism … VO2” value [7] was “↑VO2”, the “% Maximum Reduction in Food Intake” value ([7]; lean female Balb/C mice) was 50% (day 1) and the “% Max. Wt Loss” value ([7]; lean female Balb/C mice) was 12.3%.
In the case of `C[N+](C)(C)C[C@H](O)CC(=O)[O-]` [L-carnitine], the “food intake or animal weight” value ([3]; infusion into the VLH of rats) is given as “did not affect food intake or animal weight” and the “increase of FAO in the VLH over control levels” value ([3]; infusion into the VLH of rats) is given as 28%.
In the case of `CCCCCCCC(=O)O` [caprylic acid], the “FAO as measured by plasma β-hydroxybutyrate” value [9] is listed as “increased FAO” and the “reduction of the size of the first dark phase meal” value [9] is listed as 38%.
In the case of `O=C(O)CS` [mercaptoacetate], the feeding [10] is listed as “Increased feeding”.
In the case of `CCCCCCCCCCCCCCC1(C(=O)OC)CO1` (stereo not drawn) [methyl palmoxirate], the feeding [10] is listed as “Increased feeding”.
